Measurements published in patent US8192753B2, “pH-sensitive cationic lipids, and liposomes and nanocapsules containing the same” (Marina Biotech, Inc., priority 2002, dated 2012).

Experiment: Determination of pKa values by titration in 0.5% TRITON-X 100
Settings: lipid in 0.5% TRITON-X 100 in water, titrated with 20 mM NaOH from pH 3.0

4-(2-aminoethyl)morpholine-di-palmitoylglycerol succinate [#60]
pKa: 7.2
